Reference: patent publication US7084301B2 (Ranbaxy Laboratories Limited, priority 2003, dated 2006)
Where two headings read alike, the source gives them in different places.

Assays:
[1] = target: T1, rat α1A-adrenoceptor (prostate) (Rattus norvegicus, UniProt P43140); test: In-vitro functional study, agonist-induced contractile response on isolated rat prostate; type: biochemical
T1 sequence (P43140 1-466): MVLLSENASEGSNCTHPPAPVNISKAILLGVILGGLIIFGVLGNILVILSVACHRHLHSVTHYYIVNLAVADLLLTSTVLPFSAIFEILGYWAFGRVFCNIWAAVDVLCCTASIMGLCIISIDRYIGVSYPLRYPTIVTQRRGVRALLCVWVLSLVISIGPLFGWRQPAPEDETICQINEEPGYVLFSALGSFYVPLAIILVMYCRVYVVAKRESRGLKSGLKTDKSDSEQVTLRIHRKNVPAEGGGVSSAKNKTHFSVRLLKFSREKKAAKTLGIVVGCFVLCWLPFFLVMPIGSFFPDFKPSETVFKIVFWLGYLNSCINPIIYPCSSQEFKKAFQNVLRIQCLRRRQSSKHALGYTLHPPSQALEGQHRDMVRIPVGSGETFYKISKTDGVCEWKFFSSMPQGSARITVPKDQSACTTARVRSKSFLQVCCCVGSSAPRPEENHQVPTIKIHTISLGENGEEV
Method: Aorta, prostate and spleen tissues were isolated from urethane anaesthetized (1.5 gm/kg) male wistar rats. […] A resting tension of 2 g (aorta) or 1 g (spleen and prostate) was applied to tissues. Contractile response was monitored using a force displacement transducer and recorded on chart recorders. Tissues were allowed to equilibrate for 2 hours. At the end of equilibration period, concentration response curves to norepinephrine (aorta) and phenylepinephrine (spleen and prostate) were obtained in absence and presence of tested compound (at concentrations of […]). Antagonist affinities were calculated and expressed as pKB vales in Table II.
To compare the differences in pKB at the α1-arenrenoceptor subtypes one-way ANOVA followed by Dunett ‘t’ test was applied. A p<0.05 was considered statistically significant.

human α1D-adrenoceptors = target: T2, human α1D-adrenoceptors (Homo sapiens, UniProt P25100); test: Radioligand-receptor binding assay, human recombinant α1D-adrenoceptor, [3H]prazosin
T2 sequence (P25100 1-572): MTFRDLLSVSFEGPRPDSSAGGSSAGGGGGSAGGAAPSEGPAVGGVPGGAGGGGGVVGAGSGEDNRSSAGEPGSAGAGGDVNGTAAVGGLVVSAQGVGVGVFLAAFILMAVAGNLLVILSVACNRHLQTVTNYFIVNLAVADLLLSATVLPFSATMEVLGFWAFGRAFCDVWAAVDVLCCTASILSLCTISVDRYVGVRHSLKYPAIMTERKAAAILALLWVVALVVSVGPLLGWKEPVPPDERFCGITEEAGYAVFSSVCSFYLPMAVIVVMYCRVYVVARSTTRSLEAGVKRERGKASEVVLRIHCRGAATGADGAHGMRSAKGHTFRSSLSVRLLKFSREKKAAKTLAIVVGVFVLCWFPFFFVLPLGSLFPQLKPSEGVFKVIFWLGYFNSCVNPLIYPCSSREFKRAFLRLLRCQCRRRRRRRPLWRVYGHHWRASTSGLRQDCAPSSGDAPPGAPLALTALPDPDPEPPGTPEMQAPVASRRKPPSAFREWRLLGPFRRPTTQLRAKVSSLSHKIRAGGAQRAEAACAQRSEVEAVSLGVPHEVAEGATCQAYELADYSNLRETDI
Method: Chinese hamster ovary (CHO) cells which had been stably transfected with human α1A, α1B, or α1D-adrenoceptors (Keffel et al., Biochem. Biophys. Res. Commun., 2000, 272, 906–11) were cultured in an atmosphere of 5% CO2/95% air at 37° C. in F-12 HAM medium supplemented with 10% heat-inactivated fetal calf serum, 1 mM glutamine, 100 U/ml penicillin and 0.1 mg/ml streptomycin. Selection pressure was maintained by regular addition of geneticin to the culture medium.
Competitive radioligand binding to the cloned subtypes of […] was performed using [^3H]prazosin as the radioligand as described by Michel et al, Br. J. Pharmacol., 98, 883–889 (1989) with minor modifications. Experiments were performed in binding buffer consisting of 50 mM Tris, 10 mM MgCl2 and 0.5 mM EDTA at pH 7.5 in a total assay volume of 1000 μl. The protein content typically was 40–60 μg/assay. The mixtures were incubated at 25° C. for 45 minutes. Incubations were terminated by rapid vacuum filtration over GF/C filters followed by two washes of the filters each with 10 ml ice-cold incubation buffer. Non-specific binding was defined as binding in the presence of 10 μM phentolamine.
The IC50 & Kd were estimated by using the non-linear curve fitting program using G Pad Prism software. The value of inhibition constant Ki was calculated from competitive binding studies by using Cheng & Prusoff equation [Cheng & Prusoff, Biochem. Pharmacol., 22, 3099–3108 (1973)], Ki=IC50/(1+L/Kd), where L is the concentration of [^3H] prazosin used in the particular experiment. Kd of [^3H] prazosin was determined from saturation binding studies. The values were tabulated as mean±SEM of pKi values, where pKi is the −log of Ki value.

[2] = system: anaesthetised normotensive rats; test: Hypotensive effect in anaesthetised normotensive rats; type: in vivo, rat; settings: for effect on blood pressure / effect on heart rate accompanying fall in blood pressure: anaesthetised normotensive rats, cumulative 0.01-10 μg/kg; for ED20: Effective dose to produce a fall in blood pressure by 20%: urethane-anaesthetised male normotensive rats, cumulative doses via femoral vein
Method: Male normotensive rats were anaesthetised with urethane (1.2 g/kg, i.p.). Carotid artery and femoral vein were cannulated for recording blood pressure and administration of test compounds respectively. Trachea was cannulated to maintain the airway patency. Rats were divided into two groups of 10 rats each. Group I received compound of Formula I, and Group II received Tamsulosin. Compounds were administered cumulatively at dose level of 0.01, 0.03, 0.1, 0.3, 1 & 10 μg/kg and effects on blood pressure and heart rate were monitored. Each subsequent dose in cumulative dose range was administered after previous response had stabilized.
Blood pressure and heart rate were recorded before and after drug treatment on a Grass polygraph using a Statham pressure transducer and tachograph. Effect on blood pressure was expressed as percentage change from the basal level. ED20 was calculated by fitting the cumulative dose response data in non-linear regression analysis and the value was taken from the curve. Effect on heart rate was expressed as change in beats/min.
To compare the difference amongst the dose groups one-way ANOVA followed by Dunett ‘t’ test was applied. A p of <0.05 was considered statistically significant.

D-3 receptors = D-3 receptors (Homo sapiens, UniProt P35462); test: Radioligand-receptor binding assay, human recombinant D3 receptors, [3H]Spiperone
Method: Receptor binding assays were performed using human recombinant D3 receptors. […] Non-specific binding was defined by 25 μM S(−)Sulpiride.

Sequence of D-3 receptors (P35462 whole entry): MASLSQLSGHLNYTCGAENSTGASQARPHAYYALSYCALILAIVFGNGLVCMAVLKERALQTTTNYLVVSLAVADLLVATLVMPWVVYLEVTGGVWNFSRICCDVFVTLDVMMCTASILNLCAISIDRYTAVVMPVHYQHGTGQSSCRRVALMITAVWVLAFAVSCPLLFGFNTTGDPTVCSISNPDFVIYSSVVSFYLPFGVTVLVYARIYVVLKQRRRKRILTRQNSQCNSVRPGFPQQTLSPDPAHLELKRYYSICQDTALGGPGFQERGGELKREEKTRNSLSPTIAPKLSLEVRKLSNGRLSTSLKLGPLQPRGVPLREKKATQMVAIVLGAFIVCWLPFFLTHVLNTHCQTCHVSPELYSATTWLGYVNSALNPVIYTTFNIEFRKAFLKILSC

SMILES | Kb ([1]; rat prostate, phenylepinephrine-induced contraction, read-out: pKB α1A (converted)) | Ki (human α1D-adrenoceptors; human recombinant receptors in CHO cells, mean ± SEM, read-out: pKi α1D (converted)) | effect on blood pressure [2] | effect on heart rate accompanying fall in blood pressure [2] | ED20: Effective dose to produce a fall in blood pressure by 20% [2] | Ki (D-3 receptors) | Kb [1] | α1A versus α1B selectivity ([1]; functional assays, rat tissues) | Ki (human α1D-adrenoceptors) | fold greater α1A versus D3 selectivity as compared to tamsulosin (D-3 receptors; Table I and IV) | fold lower affinity for D3 receptors than tamsulosin (D-3 receptors; human recombinant receptors)
CCOc1ccccc1OCCNC(C)Cc1ccc(OC)c(S(N)(=O)=O)c1 (single isomer, unassigned; (-)) [Tamsulosin, (−) isomer of 5-[2-[2-(2-ethoxyphenoxy)ethylamino]-2-methylethyl]-2-methoxybenzene sulfonamide, reference compound] | 30.9 pM | 81.3 pM | dose dependent fall in blood pressure | decrease in the heart rate | 0.3 µg/kg | 282 pM | – | – | – | – | –
CCOc1ccccc1OCCN[C@H](C)Cc1ccc(O)c(S(N)(=O)=O)c1 [Formula I, R (−)-5-[2-[[2-(2-ethoxyphenoxy)ethyl]amino]propyl]-2-hydroxybenzenesulfonamide] | – | – | dose dependent fall in blood pressure | increase in heart rate | 0.52 µg/kg | 1780 pM | 16.2 pM | 31 fold | 107 pM | 14 fold | 6 fold
